Experimental data as given in paper PMC8708751, “Hit Identification of a Novel Quinazoline Sulfonamide as a Promising EphB3 Inhibitor: Design, Virtual Combinatorial Library, Synthesis, Biological Evaluation, and Docking Simulation Studies” (Pharmaceuticals, 2021).

Tests used:
EphB1 = biological target: T1, EphB1 (Homo sapiens, UniProt P54762); test: Kinase panel assay, EphB1; format: biochemical
T1 construct: purchased Reaction Biology Co. (Kinase HotSpot service)
T1 sequence (P54762 18-984): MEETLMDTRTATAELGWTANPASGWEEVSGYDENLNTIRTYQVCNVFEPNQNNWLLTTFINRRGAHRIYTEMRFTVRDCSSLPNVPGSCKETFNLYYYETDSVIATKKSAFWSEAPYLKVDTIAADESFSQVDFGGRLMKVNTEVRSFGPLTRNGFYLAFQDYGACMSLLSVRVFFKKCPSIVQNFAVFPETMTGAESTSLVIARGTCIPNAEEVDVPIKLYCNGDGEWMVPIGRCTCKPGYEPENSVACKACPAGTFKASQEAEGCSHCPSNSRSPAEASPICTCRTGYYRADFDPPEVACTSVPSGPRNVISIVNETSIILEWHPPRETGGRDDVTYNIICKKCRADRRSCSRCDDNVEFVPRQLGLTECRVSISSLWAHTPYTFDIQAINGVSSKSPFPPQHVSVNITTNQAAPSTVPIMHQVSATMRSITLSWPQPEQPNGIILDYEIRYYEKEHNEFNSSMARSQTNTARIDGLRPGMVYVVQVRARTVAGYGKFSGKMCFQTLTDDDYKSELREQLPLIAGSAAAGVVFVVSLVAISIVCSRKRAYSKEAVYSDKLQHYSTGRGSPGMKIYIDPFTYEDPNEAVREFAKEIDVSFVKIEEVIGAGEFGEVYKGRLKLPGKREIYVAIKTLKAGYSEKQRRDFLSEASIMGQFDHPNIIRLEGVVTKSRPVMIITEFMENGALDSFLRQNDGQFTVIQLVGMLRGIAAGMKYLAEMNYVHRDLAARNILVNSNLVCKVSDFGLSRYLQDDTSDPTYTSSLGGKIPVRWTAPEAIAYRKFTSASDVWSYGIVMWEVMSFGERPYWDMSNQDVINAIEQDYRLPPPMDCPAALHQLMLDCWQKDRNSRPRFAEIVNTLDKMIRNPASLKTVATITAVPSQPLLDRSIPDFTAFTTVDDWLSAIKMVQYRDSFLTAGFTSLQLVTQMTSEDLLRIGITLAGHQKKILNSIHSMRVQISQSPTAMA
Experimental: (§1) The HotSpot assay platform contains specific kinase/substrate pairs along with required cofactors. Base reaction buffer: 20 mM Hepes (pH 7.5), 10 mM MgCl2, 1 mM EGTA, 0.02% Brij35, 0.02 mg/mL BSA, 0.1 mM Na3VO4, 2 mM DTT, 1% DMSO. The tested compounds were dissolved in 100% DMSO to specific concentration. The serial dilution was conducted by Integra Viaflo Assist in DMSO (Sigma-Aldrich, Burlington, MA, USA). The reaction mixture containing the examined compound and 33P-ATP was incubated at room temperature for 2 h, and radioactivity was detected by filter-binding method. Kinase activity data were expressed as the percent remaining kinase activity in test samples compared to vehicle (dimethyl sulfoxide) reactions. IC50 values and curve fits were obtained using Prism (GraphPad Software, San Diego, CA, USA).

EphB4 = biological target: T2, EphB4 (Homo sapiens, UniProt P54760); test: Kinase panel assay, EphB4; format: biochemical
T2 construct: purchased Reaction Biology Co. (Kinase HotSpot service)
T2 sequence (P54760 16-987): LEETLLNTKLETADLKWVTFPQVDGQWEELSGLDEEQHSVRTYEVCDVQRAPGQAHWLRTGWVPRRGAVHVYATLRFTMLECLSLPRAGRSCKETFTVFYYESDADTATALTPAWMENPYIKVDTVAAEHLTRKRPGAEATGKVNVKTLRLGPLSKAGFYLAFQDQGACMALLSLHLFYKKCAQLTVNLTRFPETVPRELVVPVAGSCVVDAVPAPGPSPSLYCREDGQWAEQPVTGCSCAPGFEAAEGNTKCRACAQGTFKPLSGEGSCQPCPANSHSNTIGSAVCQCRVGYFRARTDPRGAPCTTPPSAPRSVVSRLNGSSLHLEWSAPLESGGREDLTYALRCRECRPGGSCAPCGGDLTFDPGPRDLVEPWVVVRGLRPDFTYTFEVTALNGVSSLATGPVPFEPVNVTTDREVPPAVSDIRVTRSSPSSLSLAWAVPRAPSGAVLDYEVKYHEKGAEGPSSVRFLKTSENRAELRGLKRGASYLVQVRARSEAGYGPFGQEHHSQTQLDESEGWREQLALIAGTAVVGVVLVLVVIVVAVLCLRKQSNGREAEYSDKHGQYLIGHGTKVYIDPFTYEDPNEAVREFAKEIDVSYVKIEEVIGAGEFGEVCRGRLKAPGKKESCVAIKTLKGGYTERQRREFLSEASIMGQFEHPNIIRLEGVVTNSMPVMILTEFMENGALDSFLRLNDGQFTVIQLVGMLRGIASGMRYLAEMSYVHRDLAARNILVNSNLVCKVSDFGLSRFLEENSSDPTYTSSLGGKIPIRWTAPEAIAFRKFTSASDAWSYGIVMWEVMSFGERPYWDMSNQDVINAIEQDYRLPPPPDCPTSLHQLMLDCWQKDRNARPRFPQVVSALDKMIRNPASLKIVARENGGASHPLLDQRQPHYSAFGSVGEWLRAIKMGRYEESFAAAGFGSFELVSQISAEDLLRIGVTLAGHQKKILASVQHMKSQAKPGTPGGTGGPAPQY
Experimental: as §1

Work on `NS(=O)(=O)c1ccc(Nc2ncnc3ccc(-c4cccc(O)c4)cc23)cc1` [Compound 4c, 4-((6-(3-Hydroxyphenyl)quinazolin-4-yl)amino)benzenesulfonamide] yielded an inhibition at 10 µM (EphB1; EphB1, 10 µM, read-out: Average % Enzyme Inhibition (Relative to DMSO Controls) at 10 µM) of 58.9 ± 1.98%, an IC50 (EphB1; EphB1, dose-dependent assay) of 5.86 µM and an inhibition at 10 µM (EphB4; EphB4, 10 µM, read-out: Average % Enzyme Inhibition (Relative to DMSO Controls) at 10 µM) of 70.2 ± 3.64%. It also gave an IC50 (EphB4; EphB4, dose-dependent assay) of 3.98 µM and a melting point of 313.2 to 315.1 °C.
